From the METLIN SMRT retention time set (Domingo-Almenara et al. 2019)

Experiment: gradient 5% acetonitrile 3 min, to 50% in 2 min, to 85% in 15 min, held 3 min, 100 µL/min
Settings: column: Zorbax Extend-C18 2.1 x 50 mm; eluents: water / acetonitrile, 0.1% formic acid
Procedure, shortened: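 Retention times come from adduct peaks that were picked computationally and then checked by hand. The standards, pure and pooled in mixtures of ~100 molecules, were run on a Zorbax Extend-C18 column (2.1 × 50 mm, 1.8 μm) at 100 μL/min with water and acetonitrile, each with 0.1% formic acid. Detection was by quadrupole time-of-flight mass spectrometry in positive and negative ionization mode, with a dead volume of 40 μL and a dwell volume of 900 μL.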

SMILES | RP-LC retention time
O=C(Nc1ccc(Nc2ccncc2)cc1)c1ccc([N+](=O)[O-])cc1 | 1250 s
O=C(Nc1ccc(Br)cc1F)C1CCN(C(=O)c2cccn2-c2cccnc2)CC1 | 782 s
CCS(=O)(=O)N1CC(F)(F)C[C@H]1c1nnc(-c2ccccc2)o1 | 824 s
CN(C)C[C@@H]1CN(S(C)(=O)=O)C[C@H]1NC(=O)c1cccn1C | 573 s
CSc1ccc(NC(=O)c2cc3c(s2)CN(C2CC2)C3)cc1 | 644 s
O=C(NC(Cc1ccccc1)C(=O)N1CCN(c2ccccn2)CC1)c1ccc(Cl)cc1 (stereo not given) | 692 s
Cc1ccc(=O)n(-c2ccccc2)c1 | 739 s
CS(=O)(=O)N1CCCN(C(=O)c2ccccc2F)CC1 | 651 s
Cc1nc(-c2csc(S(=O)(=O)N3CCCC(C(=O)Nc4ccc(C)c(F)c4)C3)c2)no1 (stereo not given) | 1030 s
O=C(CN1C(=O)C(C(=O)N2CCCCC2)Sc2ccccc21)NC1CCCCCC1 (stereo not given) | 1090 s
CN1CCCC1c1nc(C2CN(S(=O)(=O)c3ccc(C#N)cc3)C2)no1 (stereo not given) | 602 s
CC(C)CCNC(=O)c1nnc(-c2ccc(S(=O)(=O)N3CCOCC3)cc2)o1 | 851 s
CCOC(=O)CCC(=O)Nc1nnc(-c2cc(C)oc2C)o1 | 683 s
Cn1nccc1C(=O)NC1CCCN(c2cc(N3CCCC3)ncn2)C1 (stereo not given) | 590 s
Cc1noc(C)c1CC(=O)N1CCc2c(c(-c3nncn3C)nn2C)C1 | 591 s
Cc1nnc(-c2nnc(NC3CCCCCC3)c3ccccc23)o1 | 766 s
CC(CCNC(=O)c1nnc(-c2ccc(S(=O)(=O)N3CCOCC3)cc2)o1)N1CCCCCC1 (stereo not given) | 605 s
Clc1ccc(-c2nc3ccc(Cl)cn3c2Nc2ccc3c(c2)OCCO3)cc1 | 915 s
CCNc1nc(C)cc(N2CCN(S(=O)(=O)c3cccc(C)c3)CC2)n1 | 708 s

SMILES | RP-LC retention time
CCOC(=O)c1sc(NC(=O)C2CCCN(S(C)(=O)=O)C2)nc1-c1ccccc1 (stereo not given) | 863 s
Cc1nc(-c2ccccc2)nn1C1CCN(S(=O)(=O)c2cn(C)cn2)C1 (stereo not given) | 632 s
N#Cc1ccc(C(=O)OCc2nc3ccccc3s2)cc1 | 936 s
CNC(=O)OCN1C(=O)C2CC=CCC2C1=O (stereo not given) | 677 s
CCn1c(SC)nnc1-c1nn(C)c2c1CN(C(=O)c1ccccc1)CC2 | 740 s
Cc1csc(-c2cc(S(=O)(=O)NCC3CCCCC3)cn2CC(=O)N2CCCCC2)n1 | 1100 s
O=C(Cn1c(CN2CCCCCC2)nc2ccccc21)N1CCOCC1 | 596 s
O=C(C1CCN(c2nc3ccc(-c4cccs4)nc3s2)CC1)N1CCOCC1 | 826 s
O=C1C(OC2CCN(Cc3cc(F)ccc3F)CC2)CCN1C1CCCC1 (stereo not given) | 641 s
CC1CCN(S(=O)(=O)c2ccc3c(c2)CCCC(=O)N3CC(=O)N2CCOCC2)CC1 | 768 s
CN(C)[C@@H]1CN(C(=O)c2ccc(Br)cc2F)C[C@H]1CO | 581 s
O=C(NCC1CCCO1)C1COC2(CCN(C(=O)c3ccccc3F)CC2)N1C(=O)c1ccccc1 (stereo not given) | 673 s
Cc1cc(F)ccc1NC(=O)C1CCN(S(=O)(=O)c2c(C)[nH]c(C)c2C(=O)N2CCCC2)CC1 | 691 s
CCCCN1CCN(S(=O)(=O)c2cc(-c3nnc(C(C)C)o3)co2)CC1 | 652 s
Cc1ccc(-c2noc(CN3N=NC4C(=O)N(c5ccc(C)c(C)c5)C(=O)C43)n2)cc1 (stereo not given) | 1110 s
Cc1ccccc1OCC(=O)N1CC(CN(C)C)C2(CCOCC2)C1 (stereo not given) | 590 s
O=C(Nc1cccn2cnnc12)c1ccccn1 | 652 s
CC(C(=O)N1Cc2c(C(=O)NC3CC3)nn(C)c2C1)c1ccccc1 (stereo not given) | 708 s
CN1C(=O)C(=C2CCCC2)c2cc(S(=O)(=O)N3CCN(c4ccccn4)CC3)ccc21 | 710 s

Continued, values first:

RP-LC retention time | SMILES
764 s | COc1ccc(CNC(=O)C2(C)Cn3nc(C)cc3C(=O)N2c2ccc(F)cc2)cc1 (stereo not given)
943 s | CCCCn1cc(S(=O)(=O)Nc2ccc(C)cc2)c2cccnc21
751 s | COc1ncc(C(=O)NCc2ccc(Cl)cc2)cn1
656 s | CCOC(=O)CNC(=O)N1CCN(c2nc3ccccc3n2Cc2ccccc2)CC1
1210 s | CCc1ccc(-c2noc(Cn3cnc4c(cnn4-c4cc(Cl)ccc4C)c3=O)n2)cc1
889 s | CCOc1ccc(-c2noc(N3CCC(C(=O)N4CCCCC4)CC3)n2)cc1OC
809 s | COc1cc(CNC(=O)CCc2ccc(C(F)(F)F)cc2)cc(OC)c1OC
677 s | CSc1cccc(NC(=O)NCC(c2cccnc2)c2c[nH]c3ccccc23)c1 (stereo not given)
899 s | O=C(Nc1ccc(F)c(F)c1)C(=O)c1ccc[nH]1
677 s | Cc1ccc2nc(CN3CCN(C(=O)NCCc4ccccc4)CC3)oc2c1
952 s | Cc1ccc(Cn2c(CN3CCC(C(=O)NCCC4=CCCCC4)CC3)cc3ccccc32)cc1
1030 s | COc1ccc(NC(=O)C2=Cc3ccccc3OC=C2)c(OC)c1
1020 s | COC(=O)c1ccc(Cl)cc1NC(=O)NCCCn1c(C(F)(F)F)nc2cccnc21
761 s | CCN1CCn2cc(S(=O)(=O)NCc3ccc(C)c(C)c3)cc2C1=O
1020 s | CCn1cc(-c2nc(CC(=O)Nc3ccc(F)c(Cl)c3)cs2)c2cccnc21
900 s | COc1ccc2nc(C(=O)N3CCN(c4ccc(Cl)cc4)CC3)cn2n1
946 s | CCCc1nc(-c2c(C)cc(C)nc2NC(=O)c2cc(C)ccc2C)no1
853 s | CCOC(=O)c1c(S(=O)(=O)N2CCC(C(=O)Nc3ccc(OCC)cc3)CC2)c(C)n(C)c1C
833 s | CCN1C(=O)c2cccnc2Sc2cc(NC(=O)c3ccccc3C)ccc21
690 s | CC(C)OCCCNC(=O)CCc1nnc2c3cc(-c4ccccc4)nn3ccn12
1030 s | O=C(c1cnc2ccccc2n1)N1CC(c2nc(-c3cccc(C(F)(F)F)c3)no2)C1
707 s | O=C(NCc1nnnn1-c1ccc(F)c(F)c1)c1cc(=O)c2ccccc2o1
732 s | COc1ccccc1CNC(=O)CN1CCN(Cc2ccc(F)cc2)C(=O)C1=O
717 s | CC(C)CNC(=O)CN1CCN(Cc2ccccc2)C1=O
611 s | COc1ccc(Cl)cc1C(=O)NCCCOc1cccc2cccnc12
750 s | COc1cc(NC(=O)c2nc(C)oc2C)cc(OC)c1

RP-LC retention time | SMILES
593 s | COc1ccc(NC(=O)c2cnc(N3CCN(C(=O)c4ccco4)CC3)nc2N)cc1
612 s | COc1ccc(-c2c(C)noc2NC(C)=O)cc1S(=O)(=O)N1CCN(c2ccccn2)CC1
688 s | COCCn1c(C)cc(O)c(C(c2ccc(OC)cc2OC)N2CCCCC2)c1=O (stereo not given)
753 s | CCc1cccc(NC(=O)Cn2cc(C(=O)N3CCCC3)c(=O)c3ccc(C)nc32)c1
677 s | Cc1sc(NC(=O)c2ccccc2)c(C(=O)NCCN(C)C)c1C
782 s | O=C(Cn1ccc2c(SCc3ccc(F)cc3)nccc21)N1CCN(c2ccccc2)CC1
1150 s | COc1ccc(CNS(=O)(=O)c2c(C)sc(C)c2-c2cc(C(F)(F)F)on2)cc1
742 s | Cc1nn2c(CNC(=O)c3ccoc3)c(-c3ccccc3)nc2s1
920 s | COc1ccc(NC(=O)c2ccc(Cl)s2)c2ccccc12
847 s | COc1ccc(CCN2C(=O)C(NC(=O)C3CC3)(C(F)(F)F)C3=C2CC(C)(C)CC3=O)cc1OC (stereo not given)
750 s | Cc1ccc(Nc2c(-c3cccc(O)c3)nc3cnccn23)c(C)c1
1090 s | CCCN1C(=O)COc2ccc(-c3noc(COc4ccc(F)cc4)n3)cc21
1110 s | COC(=O)c1c(-c2ccccc2)csc1NC(=O)c1ccnn1C
724 s | COc1ccc(CNc2nccn(-c3ccc4c(c3)OCO4)c2=O)cc1OC
730 s | CC1(C(=O)NCc2cccc(Br)c2)Oc2cccnc2NC1=O (stereo not given)
844 s | O=C(Cc1ccsc1)NCc1cnoc1-c1ccc(F)cc1
620 s | COc1ccc(CN2CCCN(c3cc(-c4ccccc4)[nH]n3)CC2)c(O)c1
754 s | CCn1cc(S(=O)(=O)CC(=O)Nc2ccc3c(c2)OCO3)c2ccccc21
582 s | CCN(CCN(C)C)c1ccc(C(=O)O)cc1NS(=O)(=O)c1ccccc1Cl
794 s | COc1ccc(S(=O)(=O)N2CC[C@H](n3c(=O)n(C)c4cccnc43)C2)cc1
715 s | COc1ccccc1CNC(=O)CN1CCN(Cc2ccccc2F)C1=O
587 s | O=C(CCc1c(-c2ccc(Cl)cc2)nc2ccccn12)N1CCOCC1
948 s | Cc1ccc2nc(NC(=O)Cn3c(=O)n(C(C)C)c4ccc(-c5noc(C)n5)cc43)sc2c1
968 s | COc1c(C(=O)NC(C)C)sc2cccc(F)c12
704 s | Cc1cccn2cc(C(=O)NCc3ccccc3Cl)nc12
699 s | CS(=O)(=O)Nc1cccc(NC(=O)c2cc(-c3cccs3)[nH]n2)c1
